Reference: PMC8129133, “Polymer-free corticosteroid dimer implants for controlled and sustained drug delivery” (Nature Communications, 2021)
Values joined by “and” are separate entries in the source; they are usually repeats but may differ in a detail not shown here. Equal values may be shown once.

Assay: In vitro release
Format: physicochemical
Details: for Cumulative Dex (%): Fig 4b pellet 1x1 mm; for 23G x 6 mm - Cumulative Dex Release, % / 30G x 6 mm - Cumulative Dex Release, % / 23G x 6 mm - Cumulative Dex Release / 30G x 6 mm - Cumulative Dex Release: Fig 4e; for 23G x 6 mm - Cumulative Dex Release, % / 30G x 6 mm - Cumulative Dex Release, %: AVG; for 23G x 6 mm - Cumulative Dex Release / 30G x 6 mm - Cumulative Dex Release: single samples and AVG
Procedure: Pellets for release studies. Crystalline drug dimers were weighed on a stainless steel coupon. In the case of blends with a second drug, the dimer and drug were mixed at the desired mass ratio with mortar and pestle prior to weighing. Samples were transferred to a heat press (Carver Laboratory Press). A PTFE mold containing an array of 1 mm diameter holes of 1 mm depth was placed on top of the melt, and pressure was applied for 2 min. Molded pellets were cooled to room temperature and punched out of the mold, yielding a pellet of 1 mm height × 1 mm diameter.
Release studies were carried out using different media, including PBS (pH 7.4, Gibco), 100% FBS (Sigma, F1051), 1% FBS in PBS pH 7.4, and 3.6% BSA (Sigma, A7906) in PBS (pH 7.4, Gibco). […] Samples were incubated in release medium at 37 °C under constant agitation on an orbital shaker at 115 rpm (VWR). At designated timepoints, sampling was performed by complete removal of medium and replenishment with fresh buffer. Sampling timepoints included 24 h and then every 3–4 days thereafter. For PBS release conditions, samples were analyzed directly. For samples with protein (100% FBS, 1% FBS, 3.6% BSA), protein was precipitated by addition of acetonitrile. Samples were vortexed and centrifuged to separate extracted drug from precipitated protein. The supernatant was then analyzed for drug concentration by HPLC.

In the case of `C[C@@H]1C[C@H]2[C@@H]3CCC4=CC(=O)C=C[C@]4(C)[C@@]3(F)[C@@H](O)C[C@]2(C)[C@@]1(O)C(=O)COC(=O)OCCOCCOCCOC(=O)OCC(=O)[C@@]1(O)[C@H](C)C[C@H]2[C@@H]3CCC4=CC(=O)C=C[C@]4(C)[C@@]3(F)[C@@H](O)C[C@@]21C` [Dex-TEG-Dex], the “Cumulative Dex (%)” value (1% FBS, Day 1) is reported as 0.0326% and 0.0366% and 0.0447%, the “Cumulative Dex (%)” value (1% FBS, Day 3) is reported as 0.11% and 0.12% and 0.13% and the “Cumulative Dex (%)” value (1% FBS, Day 7) is reported as 0.35% and 0.44% and 0.38%. The “Cumulative Dex (%)” value (1% FBS, Day 10) was 0.52% and 0.59% and 0.51%, the “Cumulative Dex (%)” value (1% FBS, Day 14) was 0.81% and 0.96% and 0.85% and the “Cumulative Dex (%)” value (1% FBS, Day 17) was 0.94% and 1.07% and 1.04%. For the same molecule, the “Cumulative Dex (%)” value (1% FBS, Day 21) was 1.22% and 1.44% and 1.42%, the “Cumulative Dex (%)” value (1% FBS, Day 24) was 1.37% and 1.56% and 1.61% and the “Cumulative Dex (%)” value (1% FBS, Day 28) was 1.58% and 1.84% and 1.93%. For the same molecule, the “Cumulative Dex (%)” value (1% FBS, Day 31) was 1.78% and 2.05% and 2.12%, the “Cumulative Dex (%)” value (1% FBS, Day 35) was 1.95% and 2.46% and 2.48% and the “Cumulative Dex (%)” value (100% FBS, Day 1) was 1.59% and 1.88% and 1.25%. For the same molecule, the “Cumulative Dex (%)” value (100% FBS, Day 3) was 6.12% and 9.16% and 4.64%, the “Cumulative Dex (%)” value (100% FBS, Day 7) was 11.07% and 13.41% and 9.59% and the “Cumulative Dex (%)” value (100% FBS, Day 10) was 15.60% and 21.36% and 19.29%. For the same molecule, the “Cumulative Dex (%)” value (100% FBS, Day 14) was 21.12% and 26.30% and 23.66%, the “Cumulative Dex (%)” value (100% FBS, Day 17) was 25.65% and 33.52% and 29.96% and the “Cumulative Dex (%)” value (100% FBS, Day 21) was 29.80% and 39.06% and 33.88%. For the same molecule, the “Cumulative Dex (%)” value (100% FBS, Day 24) was 34.99% and 43.22% and 37.26%, the “Cumulative Dex (%)” value (100% FBS, Day 28) was 41.40% and 49.76% and 42.62% and the “Cumulative Dex (%)” value (100% FBS, Day 31) was 49.48% and 56.79% and 48.41%. The “Cumulative Dex (%)” value (100% FBS, Day 35) was 52.66% and 62.41% and 52.08%, the “Cumulative Dex (%)” value (PBS, Day 1) was 0.0268% and 0.0111% and 0.0155% and the “Cumulative Dex (%)” value (PBS, Day 7) was 0.06% and 0.0341% and 0.04%. For the same molecule, the “Cumulative Dex (%)” value (PBS, Day 10) was 0.075% and 0.04% and 0.05%, the “Cumulative Dex (%)” value (PBS, Day 14) was 0.09% and 0.05% and 0.06% and the “Cumulative Dex (%)” value (PBS, Day 17) was 0.10% and 0.0566% and 0.07%. The “Cumulative Dex (%)” value (PBS, Day 21) was 0.12% and 0.07% and 0.09%, the “Cumulative Dex (%)” value (PBS, Day 24) was 0.13% and 0.08% and 0.10% and the “Cumulative Dex (%)” value (PBS, Day 28) was 0.15% and 0.09% and 0.11%. The “Cumulative Dex (%)” value (PBS, Day 31) was 0.16% and 0.11% and 0.12%, the “Cumulative Dex (%)” value (PBS, Day 35) was 0.17% and 0.12% and 0.13% and the “23G x 6 mm - Cumulative Dex Release, %” value (Day 3) was 1.00%. The “30G x 6 mm - Cumulative Dex Release, %” value (Day 3) was 4.68%, the “23G x 6 mm - Cumulative Dex Release” value (Day 3) was 3729.09 ng and 2929.83 ng and 3290.92 ng and 3423.46 ng and 3390.39 ng and 4152.03 ng and the “30G x 6 mm - Cumulative Dex Release” value (Day 3) was 3437.65 ng and 3035.80 ng and 2955.67 ng and 2307.19 ng and 3016.47 ng. For the same molecule, the “23G x 6 mm - Cumulative Dex Release” value (Day 3, mean) was 3485.95 ng, the “30G x 6 mm - Cumulative Dex Release” value (Day 3, mean) was 2950.56 ng and the “23G x 6 mm - Cumulative Dex Release, %” value (Day 8) was 1.83%. The “30G x 6 mm - Cumulative Dex Release, %” value (Day 8) was 10.16%, the “23G x 6 mm - Cumulative Dex Release” value (Day 8) was 7366.47 ng and 5713.70 ng and 5752.02 ng and 6286.74 ng and 6353.56 ng and 6670.93 ng and the “30G x 6 mm - Cumulative Dex Release” value (Day 8) was 7053.30 ng and 6157.33 ng and 6454.99 ng and 5803.26 ng and 6543.46 ng. For the same molecule, the “23G x 6 mm - Cumulative Dex Release” value (Day 8, mean) was 6357.24 ng, the “30G x 6 mm - Cumulative Dex Release” value (Day 8, mean) was 6402.47 ng and the “23G x 6 mm - Cumulative Dex Release, %” value (Day 10) was 2.30%. For the same molecule, the “30G x 6 mm - Cumulative Dex Release, %” value (Day 10) was 11.65%, the “23G x 6 mm - Cumulative Dex Release” value (Day 10) was 9158.12 ng and 7456.22 ng and 6722.99 ng and 8377.04 ng and 7947.05 ng and 8287.22 ng and the “30G x 6 mm - Cumulative Dex Release” value (Day 10) was 7909.95 ng and 7094.85 ng and 7391.21 ng and 6693.85 ng and 7620.80 ng. The “23G x 6 mm - Cumulative Dex Release” value (Day 10, mean) was 7991.44 ng, the “30G x 6 mm - Cumulative Dex Release” value (Day 10, mean) was 7342.13 ng and the “23G x 6 mm - Cumulative Dex Release, %” value (Day 14) was 3.12%. The “30G x 6 mm - Cumulative Dex Release, %” value (Day 14) was 14.82%, the “23G x 6 mm - Cumulative Dex Release” value (Day 14) was 11851.57 ng and 10258.34 ng and 8632.68 ng and 12053.80 ng and 11294.23 ng and 11036.15 ng and the “30G x 6 mm - Cumulative Dex Release” value (Day 14) was 9732.58 ng and 9343.08 ng and 9295.87 ng and 8576.11 ng and 9731.17 ng. The “23G x 6 mm - Cumulative Dex Release” value (Day 14, mean) was 10854.46 ng, the “30G x 6 mm - Cumulative Dex Release” value (Day 14, mean) was 9335.76 ng and the “23G x 6 mm - Cumulative Dex Release, %” value (Day 17) was 3.78%. For the same molecule, the “30G x 6 mm - Cumulative Dex Release, %” value (Day 17) was 17.41%, the “23G x 6 mm - Cumulative Dex Release” value (Day 17) was 14384.84 ng and 12536.91 ng and 10299.95 ng and 14655.10 ng and 13823.20 ng and 13226.26 ng and the “30G x 6 mm - Cumulative Dex Release” value (Day 17) was 11350.14 ng and 11189.72 ng and 10651.54 ng and 10149.26 ng and 11503.70 ng. For the same molecule, the “23G x 6 mm - Cumulative Dex Release” value (Day 17, mean) was 13154.38 ng, the “30G x 6 mm - Cumulative Dex Release” value (Day 17, mean) was 10968.87 ng and the “23G x 6 mm - Cumulative Dex Release, %” value (Day 21) was 4.61%. For the same molecule, the “30G x 6 mm - Cumulative Dex Release, %” value (Day 21) was 21.03%, the “23G x 6 mm - Cumulative Dex Release” value (Day 21) was 17889.27 ng and 15640.68 ng and 12427.10 ng and 17536.82 ng and 17079.10 ng and 15733.26 ng and the “30G x 6 mm - Cumulative Dex Release” value (Day 21) was 13690.06 ng and 13583.23 ng and 12649.08 ng and 12021.08 ng and 14305.00 ng. The “23G x 6 mm - Cumulative Dex Release” value (Day 21, mean) was 16051.04 ng, the “30G x 6 mm - Cumulative Dex Release” value (Day 21, mean) was 13249.69 ng and the “23G x 6 mm - Cumulative Dex Release, %” value (Day 24) was 5.14%. The “30G x 6 mm - Cumulative Dex Release, %” value (Day 24) was 23.23%, the “23G x 6 mm - Cumulative Dex Release” value (Day 24) was 20230.97 ng and 17190.29 ng and 13784.68 ng and 19329.36 ng and 19335.19 ng and 17491.78 ng and the “30G x 6 mm - Cumulative Dex Release” value (Day 24) was 15132.41 ng and 14970.59 ng and 13925.27 ng and 13373.61 ng and 15759.23 ng. For the same molecule, the “23G x 6 mm - Cumulative Dex Release” value (Day 24, mean) was 17893.71 ng and the “30G x 6 mm - Cumulative Dex Release” value (Day 24, mean) was 14632.22 ng.
